According to publication PMC6199744, “Development of Chemical Proteomics for the Folateome and Analysis of the Kinetoplastid Folateome” (ACS Infectious Diseases, 2018):

Assays:
Assay type in all cases: binding
[1] = target: T1, HeLa cell extract proteins (Homo sapiens, UniProt O95831); conditions: protein AIFM1; HeLa
T1 construct: endogenous in cells; host or cells: HeLa cell extract

[2] = target: T2, HeLa cell extract proteins (Homo sapiens, UniProt O75340); conditions: HeLa; protein PDCD6 (PROGRAMMED CELL DEATH PROTEIN 6)
T2 construct: endogenous in cells; host or cells: HeLa cell extract
T2 sequence (O75340 whole entry): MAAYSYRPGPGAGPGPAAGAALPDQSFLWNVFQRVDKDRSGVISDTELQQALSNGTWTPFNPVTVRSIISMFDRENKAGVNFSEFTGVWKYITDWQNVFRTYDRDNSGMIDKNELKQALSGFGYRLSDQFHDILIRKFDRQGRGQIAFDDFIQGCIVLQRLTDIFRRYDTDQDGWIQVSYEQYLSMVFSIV

[3] = target: T3, HeLa cell extract proteins (Homo sapiens, UniProt O15427); conditions: HeLa; protein SLC16A3
T3 construct: endogenous in cells; host or cells: HeLa cell extract
T3 sequence (O15427 1-465): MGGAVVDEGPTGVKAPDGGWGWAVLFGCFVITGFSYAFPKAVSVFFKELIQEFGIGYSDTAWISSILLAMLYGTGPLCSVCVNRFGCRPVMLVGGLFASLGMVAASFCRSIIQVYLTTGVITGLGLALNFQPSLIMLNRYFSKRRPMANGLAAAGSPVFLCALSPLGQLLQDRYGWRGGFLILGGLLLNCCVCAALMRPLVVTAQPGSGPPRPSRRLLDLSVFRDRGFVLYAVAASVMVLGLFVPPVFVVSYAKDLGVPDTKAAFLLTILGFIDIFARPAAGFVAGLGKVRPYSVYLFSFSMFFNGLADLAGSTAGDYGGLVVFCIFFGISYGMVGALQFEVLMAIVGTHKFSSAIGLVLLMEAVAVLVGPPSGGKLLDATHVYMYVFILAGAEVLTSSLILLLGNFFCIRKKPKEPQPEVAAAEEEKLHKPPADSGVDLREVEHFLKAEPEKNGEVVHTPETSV

[4] = target: T4, HeLa cell extract proteins (Homo sapiens, UniProt P11142); conditions: HeLa; captured protein HSPA8
T4 construct: endogenous in cells; host or cells: HeLa cell extract
T4 sequence (P11142 whole entry): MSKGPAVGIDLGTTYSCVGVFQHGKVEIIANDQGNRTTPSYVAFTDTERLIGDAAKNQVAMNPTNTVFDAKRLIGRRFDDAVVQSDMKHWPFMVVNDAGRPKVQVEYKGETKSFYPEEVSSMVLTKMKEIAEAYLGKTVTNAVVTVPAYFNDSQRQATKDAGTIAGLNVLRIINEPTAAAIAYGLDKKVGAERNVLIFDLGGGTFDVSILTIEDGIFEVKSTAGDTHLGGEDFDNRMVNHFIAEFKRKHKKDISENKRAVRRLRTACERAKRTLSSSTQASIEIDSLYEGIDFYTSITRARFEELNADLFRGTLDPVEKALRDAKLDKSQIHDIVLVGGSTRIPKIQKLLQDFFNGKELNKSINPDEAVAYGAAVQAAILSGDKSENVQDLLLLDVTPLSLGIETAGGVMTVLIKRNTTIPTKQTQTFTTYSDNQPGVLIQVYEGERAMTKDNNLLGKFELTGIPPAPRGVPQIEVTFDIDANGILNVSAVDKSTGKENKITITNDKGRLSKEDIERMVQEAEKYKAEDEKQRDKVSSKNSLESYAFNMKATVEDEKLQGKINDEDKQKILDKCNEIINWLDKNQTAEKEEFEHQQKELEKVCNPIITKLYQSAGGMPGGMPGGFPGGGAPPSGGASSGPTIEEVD

[5] = target: T5, HeLa cell extract proteins (Homo sapiens, UniProt P22234); conditions: HeLa; protein PAICS
T5 construct: endogenous in cells; host or cells: HeLa cell extract
T5 sequence (P22234 1-425): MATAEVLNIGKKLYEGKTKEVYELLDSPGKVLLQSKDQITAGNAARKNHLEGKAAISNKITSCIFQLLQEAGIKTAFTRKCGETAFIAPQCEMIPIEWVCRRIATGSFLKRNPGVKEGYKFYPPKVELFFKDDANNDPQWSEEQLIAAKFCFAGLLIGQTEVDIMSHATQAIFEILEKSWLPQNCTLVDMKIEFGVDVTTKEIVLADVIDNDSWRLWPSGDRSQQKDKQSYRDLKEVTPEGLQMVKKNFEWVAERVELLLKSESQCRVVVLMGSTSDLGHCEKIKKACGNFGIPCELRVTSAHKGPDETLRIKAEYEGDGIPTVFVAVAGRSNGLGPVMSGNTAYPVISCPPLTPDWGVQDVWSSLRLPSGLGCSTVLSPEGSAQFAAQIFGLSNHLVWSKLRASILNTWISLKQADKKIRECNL

[6] = target: T6, HeLa cell extract proteins (Homo sapiens, UniProt O75152); conditions: HeLa; protein ZC3H11A (ZINC FINGER CCCH DOMAIN-CONTAINING PROTEIN 11A)
T6 construct: endogenous in cells; host or cells: HeLa cell extract
T6 sequence (O75152 whole entry, the tested form may be a part): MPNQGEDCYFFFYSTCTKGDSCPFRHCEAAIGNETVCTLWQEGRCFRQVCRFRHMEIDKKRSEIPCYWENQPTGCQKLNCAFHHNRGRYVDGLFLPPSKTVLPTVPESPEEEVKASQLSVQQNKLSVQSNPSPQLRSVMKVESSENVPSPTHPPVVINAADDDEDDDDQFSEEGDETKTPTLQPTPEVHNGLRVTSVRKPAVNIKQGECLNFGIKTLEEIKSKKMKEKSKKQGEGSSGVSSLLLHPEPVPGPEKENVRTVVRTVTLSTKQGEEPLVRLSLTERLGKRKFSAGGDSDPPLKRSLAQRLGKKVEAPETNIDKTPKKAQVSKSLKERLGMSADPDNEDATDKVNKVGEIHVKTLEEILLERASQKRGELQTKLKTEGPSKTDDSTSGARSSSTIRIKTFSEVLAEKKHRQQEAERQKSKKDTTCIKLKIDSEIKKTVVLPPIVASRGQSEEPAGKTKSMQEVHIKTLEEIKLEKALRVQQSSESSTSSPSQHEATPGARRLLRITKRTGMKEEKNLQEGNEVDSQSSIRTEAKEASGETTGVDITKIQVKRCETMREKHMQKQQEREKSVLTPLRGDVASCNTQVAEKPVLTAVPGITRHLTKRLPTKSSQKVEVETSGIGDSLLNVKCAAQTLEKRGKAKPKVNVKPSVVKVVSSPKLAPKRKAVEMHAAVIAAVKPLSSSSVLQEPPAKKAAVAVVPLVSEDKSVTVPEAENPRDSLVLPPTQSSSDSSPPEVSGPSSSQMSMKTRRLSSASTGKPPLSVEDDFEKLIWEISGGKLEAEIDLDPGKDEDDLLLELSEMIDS

[7] = target: T7, HeLa cell extract proteins (Homo sapiens, UniProt Q9H583); conditions: HeLa; protein HEATR1
T7 construct: endogenous in cells; host or cells: HeLa cell extract

[8] = target: T8, HeLa cell extract proteins (Homo sapiens, UniProt P0DMV8); conditions: HeLa; captured protein HSPA1A
T8 construct: endogenous in cells; host or cells: HeLa cell extract
T8 sequence (P0DMV8 whole entry): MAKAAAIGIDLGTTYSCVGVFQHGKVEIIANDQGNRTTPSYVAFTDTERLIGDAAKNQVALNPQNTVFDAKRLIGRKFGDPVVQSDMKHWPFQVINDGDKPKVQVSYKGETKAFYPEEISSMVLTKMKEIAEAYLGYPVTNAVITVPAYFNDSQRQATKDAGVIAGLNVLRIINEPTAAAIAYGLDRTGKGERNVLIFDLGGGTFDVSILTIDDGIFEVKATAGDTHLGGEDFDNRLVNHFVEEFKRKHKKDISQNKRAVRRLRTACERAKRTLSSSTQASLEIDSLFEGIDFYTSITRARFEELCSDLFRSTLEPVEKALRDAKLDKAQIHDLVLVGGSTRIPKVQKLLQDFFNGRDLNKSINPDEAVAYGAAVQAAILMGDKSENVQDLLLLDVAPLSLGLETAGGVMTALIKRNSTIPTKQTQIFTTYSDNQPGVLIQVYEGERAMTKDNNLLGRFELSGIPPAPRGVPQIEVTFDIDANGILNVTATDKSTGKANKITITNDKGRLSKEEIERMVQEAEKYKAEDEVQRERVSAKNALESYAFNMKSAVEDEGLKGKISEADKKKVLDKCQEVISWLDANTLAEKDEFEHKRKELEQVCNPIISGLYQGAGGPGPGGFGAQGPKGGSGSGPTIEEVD

[9] = target: T9, HeLa cell extract proteins (Homo sapiens, UniProt Q13162); conditions: HeLa; protein PRDX4 (PEROXIREDOXIN-4)
T9 construct: endogenous in cells; host or cells: HeLa cell extract
T9 sequence (Q13162 38-271): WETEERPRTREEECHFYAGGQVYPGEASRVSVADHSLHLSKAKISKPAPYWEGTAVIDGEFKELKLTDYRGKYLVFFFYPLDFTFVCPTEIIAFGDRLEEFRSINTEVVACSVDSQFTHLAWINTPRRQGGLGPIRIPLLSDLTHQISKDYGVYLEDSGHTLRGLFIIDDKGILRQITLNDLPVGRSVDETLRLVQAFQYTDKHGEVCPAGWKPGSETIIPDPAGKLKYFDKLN

[10] = target: T10, HeLa cell extract proteins (Homo sapiens, UniProt O75521); conditions: HeLa; captured protein PECI
T10 construct: endogenous in cells; host or cells: HeLa cell extract
T10 sequence (O75521 39-394): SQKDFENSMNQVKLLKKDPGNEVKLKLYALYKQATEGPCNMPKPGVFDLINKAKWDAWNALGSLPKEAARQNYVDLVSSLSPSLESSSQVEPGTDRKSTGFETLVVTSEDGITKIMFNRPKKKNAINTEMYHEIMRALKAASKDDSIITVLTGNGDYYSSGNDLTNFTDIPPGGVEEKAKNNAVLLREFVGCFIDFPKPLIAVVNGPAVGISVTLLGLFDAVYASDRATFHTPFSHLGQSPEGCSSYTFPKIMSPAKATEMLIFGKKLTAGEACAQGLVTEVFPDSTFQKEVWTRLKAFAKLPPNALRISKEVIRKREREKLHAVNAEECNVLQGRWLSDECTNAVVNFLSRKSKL

[11] = target: T11, HeLa cell extract proteins (Homo sapiens, UniProt P51149); conditions: protein RAB7A; HeLa
T11 construct: endogenous in cells; host or cells: HeLa cell extract
T11 sequence (P51149 whole entry): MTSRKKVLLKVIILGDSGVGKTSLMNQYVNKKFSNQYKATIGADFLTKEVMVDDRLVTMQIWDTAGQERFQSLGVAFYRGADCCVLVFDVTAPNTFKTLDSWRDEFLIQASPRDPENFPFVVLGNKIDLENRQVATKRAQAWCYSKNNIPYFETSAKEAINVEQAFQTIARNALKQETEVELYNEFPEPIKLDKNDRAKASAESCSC

[12] = target: T12, HeLa cell extract proteins (Homo sapiens, UniProt O15260); conditions: HeLa; captured protein SURF4
T12 construct: endogenous in cells; host or cells: HeLa cell extract
T12 sequence (O15260 whole entry): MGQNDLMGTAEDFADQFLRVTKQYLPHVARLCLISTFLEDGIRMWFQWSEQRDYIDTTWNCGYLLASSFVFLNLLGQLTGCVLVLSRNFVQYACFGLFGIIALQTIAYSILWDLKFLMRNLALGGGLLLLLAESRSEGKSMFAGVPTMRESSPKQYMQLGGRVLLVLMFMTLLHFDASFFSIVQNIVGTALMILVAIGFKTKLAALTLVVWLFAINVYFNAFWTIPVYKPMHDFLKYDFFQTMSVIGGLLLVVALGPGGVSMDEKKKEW

[13] = target: T13, HeLa cell extract proteins (Homo sapiens, UniProt P61160); conditions: HeLa; protein ACTR2
T13 construct: endogenous in cells; host or cells: HeLa cell extract

[14] = target: T14, HeLa cell extract proteins (Homo sapiens, UniProt P06744); conditions: HeLa; protein GPI
T14 construct: endogenous in cells; host or cells: HeLa cell extract

T1 sequence (O95831 102-613): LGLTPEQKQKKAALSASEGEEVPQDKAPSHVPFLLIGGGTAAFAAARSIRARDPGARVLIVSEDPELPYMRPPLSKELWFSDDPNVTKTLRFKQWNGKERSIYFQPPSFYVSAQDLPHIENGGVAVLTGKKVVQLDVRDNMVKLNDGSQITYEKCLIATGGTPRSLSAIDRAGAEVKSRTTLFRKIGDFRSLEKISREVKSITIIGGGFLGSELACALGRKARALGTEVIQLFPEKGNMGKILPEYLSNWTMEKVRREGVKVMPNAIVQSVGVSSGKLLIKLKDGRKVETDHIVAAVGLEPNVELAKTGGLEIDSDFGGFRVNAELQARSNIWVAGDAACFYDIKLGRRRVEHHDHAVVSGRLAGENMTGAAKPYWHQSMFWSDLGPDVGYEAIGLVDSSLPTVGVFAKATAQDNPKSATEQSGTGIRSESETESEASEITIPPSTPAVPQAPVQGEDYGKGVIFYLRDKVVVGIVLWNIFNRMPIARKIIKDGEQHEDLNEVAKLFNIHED

## NCCCNc1ccc(C(=O)NC(CCC(=O)O)C(=O)O)cc1 (centres unmarked) [compound 7]
[1]
  fold changes relative to vehicle control: 1.06
[2]
  fold changes relative to vehicle control: 1.05
[3]
  fold changes relative to vehicle control: 0.94
[4]
  fold changes relative to vehicle control: 0.99
[5]
  fold changes relative to vehicle control: 0.98
[6]
  fold changes relative to vehicle control: 1.01
[7]
  fold changes relative to vehicle control: 1.04
[8]
  fold changes relative to vehicle control: 0.99
[9]
  fold changes relative to vehicle control: 0.99
[10]
  fold changes relative to vehicle control: 1.03
[11]
  fold changes relative to vehicle control: 1.05
[12]
  fold changes relative to vehicle control: 0.92
[13]
  fold changes relative to vehicle control: 0.97
[14]
  fold changes relative to vehicle control: 0.96
